From US11053204B2, “Pyrimidinyloxy benzene derivatives as herbicides” (FMC Corporation, priority 2015, dated 2021)

Assays:
Format in all cases: in vivo
[1] = tested on: galium (catchweed bedstraw, Galium aparine); experiment: Test C preemergence, plant response rating
[2] = tested on: johnsongrass (Sorghum halepense); experiment: Test C preemergence, plant response rating
[3] = tested on: pigweed (Amaranthus retroflexus); experiment: Test C preemergence, plant response rating; details: Preemergence
[4] = tested on: barnyardgrass (Echinochloa crus-galli); experiment: Test C preemergence, plant response rating; details: Preemergence
[5] = tested on: barnyardgrass (Echinochloa crus-galli); experiment: Test C postemergence, plant response rating; details: for Plant response rating, Barnyardgrass: scale 0 to 100; for Barnyardgrass plant response rating: scale 0 to 100 (0 no effect, 100 complete control)
In short: (§1)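 Visual injury score, 0 = no effect, 100 = complete control, assigned against untreated controls after 13 to 15 d in the greenhouse. Compounds were applied in a surfactant-containing non-phytotoxic solvent mix, preemergence to seeded loam/sand or silt loam soil, or postemergence to 1- to 4-leaf plants (2 to 18 cm).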

[6] = tested on: blackgrass (Alopecurus myosuroides); experiment: Test C postemergence, plant response rating; details: for Plant response rating, Blackgrass: scale 0 to 100; for Blackgrass plant response rating: scale 0 to 100 (0 no effect, 100 complete control)
In short: as §1

[7] = tested on: chickweed (common chickweed, Stellaria media); experiment: Test C postemergence, plant response rating; details: for Chickweed plant response rating: scale 0 to 100 (0 no effect, 100 complete control)
In short: as §1

[8] = tested on: lambsquarters (Chenopodium album); experiment: Test C postemergence, plant response rating; details: for Lambsquarters plant response rating: scale 0 to 100 (0 no effect, 100 complete control)
In short: as §1

[9] = tested on: morningglory (Ipomoea coccinea); experiment: Test C postemergence, plant response rating; details: for Morningglory plant response rating: scale 0 to 100 (0 no effect, 100 complete control)
In short: as §1

[10] = tested on: nutsedge, yellow (yellow nutsedge, Cyperus esculentus); experiment: Test C postemergence, plant response rating; details: for Nutsedge, Yellow plant response rating: scale 0 to 100 (0 no effect, 100 complete control)
In short: as §1

[11] = tested on: oat, wild (wild oat Avena fatua); experiment: Test C postemergence, plant response rating; details: for Oat, Wild plant response rating: scale 0 to 100 (0 no effect, 100 complete control)
In short: as §1

[12] = tested on: ragweed (common ragweed, Ambrosia elatior); experiment: Test C postemergence, plant response rating; details: for Ragweed plant response rating: scale 0 to 100 (0 no effect, 100 complete control)
In short: as §1

[13] = tested on: ryegrass, Italian (Italian ryegrass, Lolium multiflorum); experiment: Test C postemergence, plant response rating; details: for Ryegrass, Italian plant response rating: scale 0 to 100 (0 no effect, 100 complete control)
In short: as §1

[14] = tested on: velvetleaf (Abutilon theophrasti); experiment: Test C postemergence, plant response rating; details: for Velvetleaf plant response rating: scale 0 to 100 (0 no effect, 100 complete control)
In short: as §1

[15] = tested on: wheat (winter wheat, Triticum aestivum); experiment: Test C postemergence, plant response rating; details: for Wheat plant response rating: scale 0 to 100 (0 no effect, 100 complete control)
In short: as §1

N#Cc1cccc(Oc2ncc(Cl)cn2)c1C(=O)OCCC(F)(F)F [Compound 30]
Plant response rating, Galium ([1]; 16 g ai/ha, scale 0 to 100): 80 | Plant response rating, Galium ([1]; 31 g ai/ha, scale 0 to 100): 10 | Plant response rating, Galium ([1]; 62 g ai/ha, scale of 0 to 100): 60 | Plant response rating, Galium ([1]; 125 g ai/ha, scale of 0 to 100): 85 | Plant response rating, Johnsongrass ([2]; 16 g ai/ha, scale 0 to 100): 0 | Plant response rating, Johnsongrass ([2]; 31 g ai/ha, scale 0 to 100): 0 | Plant response rating, Johnsongrass ([2]; 62 g ai/ha, scale 0 to 100): 0 | Plant response rating, Johnsongrass ([2]; 125 g ai/ha, scale of 0 to 100): 15 | Plant response rating, Pigweed ([3]; 125 g ai/ha, scale of 0 to 100): 100 | Plant response rating, Pigweed ([3]; 16 g ai/ha, scale 0 to 100): 90 | Plant response rating, Pigweed ([3]; 31 g ai/ha, scale 0 to 100): 95 | Plant response rating, Pigweed ([3]; 62 g ai/ha, scale 0 to 100): 100 | Plant response rating, Barnyardgrass ([4]; 62 g ai/ha, scale of 0 to 100): 10 | Plant response rating, Barnyardgrass ([4]; 125 g ai/ha, scale of 0 to 100): 25 | Plant response rating, Barnyardgrass ([4]; 16 g ai/ha, scale 0 to 100): 10 | Plant response rating, Barnyardgrass ([4]; 31 g ai/ha, scale 0 to 100): 15

O=C(CCCC(F)(F)F)c1c(Br)cccc1Oc1ncc(Cl)cn1 [Compound 77]
Plant response rating, Galium ([1]; 16 g ai/ha, scale 0 to 100): 0 | Plant response rating, Galium ([1]; 31 g ai/ha, scale 0 to 100): 0 | Plant response rating, Galium ([1]; 62 g ai/ha, scale of 0 to 100): 98 | Plant response rating, Galium ([1]; 125 g ai/ha, scale of 0 to 100): 98 | Plant response rating, Pigweed ([3]; 125 g ai/ha, scale of 0 to 100): 100 | Plant response rating, Pigweed ([3]; 16 g ai/ha, scale 0 to 100): 85 | Plant response rating, Pigweed ([3]; 31 g ai/ha, scale 0 to 100): 100 | Plant response rating, Pigweed ([3]; 62 g ai/ha, scale 0 to 100): 100 | Plant response rating, Barnyardgrass ([4]; 62 g ai/ha, scale of 0 to 100): 98 | Plant response rating, Barnyardgrass ([4]; 125 g ai/ha, scale of 0 to 100): 100 | Plant response rating, Barnyardgrass ([4]; 16 g ai/ha, scale 0 to 100): 20 | Plant response rating, Barnyardgrass ([4]; 31 g ai/ha, scale 0 to 100): 60 | Plant response rating, Barnyardgrass ([5]; 16 g ai/ha): 15 | Plant response rating, Barnyardgrass ([5]; 31 g ai/ha): 25 | Barnyardgrass plant response rating ([5]; 62 g ai/ha): 25 | Barnyardgrass plant response rating ([5]; 125 g ai/ha): 30 | Plant response rating, Blackgrass ([6]; 16 g ai/ha): 5 | Plant response rating, Blackgrass ([6]; 31 g ai/ha): 20 | Blackgrass plant response rating ([6]; 62 g ai/ha): 20 | Blackgrass plant response rating ([6]; 125 g ai/ha): 25 | Plant response rating, Chickweed ([7]; 16 g ai/ha, scale of 0 to 100): 80 | Plant response rating, Chickweed ([7]; 31 g ai/ha, scale 0 to 100): 80 | Chickweed plant response rating ([7]; 62 g ai/ha): 100 | Chickweed plant response rating ([7]; 125 g ai/ha): 100 | Plant response rating, Lambsquarters ([8]; 16 g ai/ha, scale of 0 to 100): 55 | Plant response rating, Lambsquarters ([8]; 31 g ai/ha, scale 0 to 100): 75 | Lambsquarters plant response rating ([8]; 62 g ai/ha): 70 | Lambsquarters plant response rating ([8]; 125 g ai/ha): 90 | Plant response rating, Morningglory ([9]; 16 g ai/ha, scale of 0 to 100): 50 | Plant response rating, Morningglory ([9]; 31 g ai/ha, scale 0 to 100): 85 | Morningglory plant response rating ([9]; 62 g ai/ha): 90 | Morningglory plant response rating ([9]; 125 g ai/ha): 80 | Plant response rating, Nutsedge, Yellow ([10]; 16 g ai/ha, scale of 0 to 100): 5 | Plant response rating, Nutsedge, Yellow ([10]; 31 g ai/ha, scale 0 to 100): 10 | Nutsedge, Yellow plant response rating ([10]; 62 g ai/ha): 15 | Nutsedge, Yellow plant response rating ([10]; 125 g ai/ha): 15 | Plant response rating, Oat, Wild ([11]; 16 g ai/ha, scale of 0 to 100): 0 | Plant response rating, Oat, Wild ([11]; 31 g ai/ha, scale 0 to 100): 5 | Oat, Wild plant response rating ([11]; 62 g ai/ha): 10 | Oat, Wild plant response rating ([11]; 125 g ai/ha): 15 | Plant response rating, Ragweed ([12]; 16 g ai/ha, scale of 0 to 100): 40 | Plant response rating, Ragweed ([12]; 31 g ai/ha, scale 0 to 100): 40 | Ragweed plant response rating ([12]; 62 g ai/ha): 35 | Ragweed plant response rating ([12]; 125 g ai/ha): 70 | Plant response rating, Ryegrass, Italian ([13]; 16 g ai/ha, scale of 0 to 100): 0 | Plant response rating, Ryegrass, Italian ([13]; 31 g ai/ha, scale 0 to 100): 5 | Ryegrass, Italian plant response rating ([13]; 62 g ai/ha): 10 | Ryegrass, Italian plant response rating ([13]; 125 g ai/ha): 10 | Plant response rating, Velvetleaf ([14]; 16 g ai/ha, scale of 0 to 100): 35 | Plant response rating, Velvetleaf ([14]; 31 g ai/ha, scale 0 to 100): 50 | Velvetleaf plant response rating ([14]; 62 g ai/ha): 55 | Velvetleaf plant response rating ([14]; 125 g ai/ha): 65 | Plant response rating, Wheat ([15]; 16 g ai/ha, scale of 0 to 100): 0 | Plant response rating, Wheat ([15]; 31 g ai/ha, scale 0 to 100): 0 | Wheat plant response rating ([15]; 62 g ai/ha): 10 | Wheat plant response rating ([15]; 125 g ai/ha): 30
